Reference: the NIST ThermoML archive (doi:10.1016/j.fluid.2014.09.014)

Assay: refractive index (other wavelength) (dimensionless); xn = mol fraction of the nth substance listed
Conditions: 101 kPa, Liquid, Standard Abbe refractometry

CC(C)OC(C)C [diisopropyl ether] + CO
refractive index
Conditions | Wavelength=40.47 nm | Wavelength=486.1 nm | Wavelength=546.1 nm | Wavelength=587.6 nm | Wavelength=589.3 nm | Wavelength=632.8 nm | Wavelength=644 nm | Wavelength=706.5 nm
303.15 K, x2 = 0 | – | – | 1.36406 | 1.3626 | 1.36255 | 1.3613 | 1.361 | 1.3596
303.15 K, x2 = 0.0424 | – | – | 1.36403 | 1.36256 | 1.36251 | 1.36124 | 1.36094 | 1.35954
303.15 K, x2 = 0.082 | – | – | 1.36396 | 1.3625 | 1.36245 | 1.3612 | 1.3609 | 1.35948
303.15 K, x2 = 0.0822 | – | – | 1.36406 | 1.36261 | 1.36256 | 1.36129 | 1.36099 | –
303.15 K, x2 = 0.1171 | – | – | 1.36389 | 1.36245 | 1.3624 | 1.36114 | 1.36084 | 1.35943
303.15 K, x2 = 0.1271 | – | 1.36672 | 1.36392 | 1.36246 | 1.3624 | 1.36116 | 1.36086 | 1.35944
303.15 K, x2 = 0.1827 | – | 1.36639 | 1.36258 | 1.36214 | 1.36209 | 1.36085 | 1.36055 | 1.35913
303.15 K, x2 = 0.2162 | – | 1.36618 | 1.36341 | 1.36196 | 1.36191 | 1.36065 | 1.36036 | 1.35895
303.15 K, x2 = 0.251 | – | 1.36621 | 1.36343 | 1.36198 | 1.36193 | 1.36068 | 1.36039 | 1.35898
303.15 K, x2 = 0.3298 | – | 1.36561 | 1.36283 | 1.3614 | 1.36134 | 1.36011 | 1.35981 | 1.35839
303.15 K, x2 = 0.3577 | – | 1.36581 | 1.36302 | 1.36159 | 1.36153 | 1.36029 | 1.35999 | 1.35898
303.15 K, x2 = 0.4497 | – | 1.36334 | 1.36058 | 1.35917 | 1.35912 | 1.35789 | 1.3576 | 1.35619
303.15 K, x2 = 0.4525 | – | 1.36382 | 1.36107 | 1.35964 | 1.35959 | 1.35835 | 1.35805 | 1.35666
303.15 K, x2 = 0.522 | – | 1.36159 | 1.35886 | 1.35746 | 1.35741 | 1.35619 | 1.3559 | 1.3545
303.15 K, x2 = 0.5543 | – | 1.36106 | 1.35836 | 1.35695 | 1.3569 | 1.35568 | 1.35539 | 1.35399
303.15 K, x2 = 0.609 | – | 1.35828 | 1.35561 | 1.35421 | 1.35416 | 1.35295 | 1.35266 | 1.35129
303.15 K, x2 = 0.6529 | – | 1.35681 | 1.35414 | 1.35275 | 1.35269 | 1.3515 | 1.35122 | 1.34985
303.15 K, x2 = 0.7504 | – | 1.35295 | 1.35029 | 1.34898 | 1.34888 | 1.34771 | 1.34743 | 1.34608
303.15 K, x2 = 0.804 | – | 1.34869 | 1.34608 | 1.34474 | 1.34469 | 1.34354 | 1.34327 | 1.34193
303.15 K, x2 = 0.807 | – | 1.34861 | 1.34603 | 1.34467 | 1.34462 | 1.34346 | 1.3432 | 1.34186
303.15 K, x2 = 0.8727 | – | 1.34352 | 1.34092 | 1.33965 | 1.3396 | 1.33846 | 1.3382 | 1.33691
303.15 K, x2 = 0.9233 | – | 1.33657 | 1.33409 | 1.33279 | 1.33274 | 1.33164 | 1.33139 | 1.33015
303.15 K, x2 = 0.9253 | – | 1.33839 | 1.3359 | 1.33458 | 1.33453 | 1.33342 | 1.33317 | 1.3319
303.15 K, x2 = 0.9527 | – | 1.33525 | 1.33279 | 1.3315 | 1.33145 | 1.33035 | 1.33009 | 1.32886
303.15 K, x2 = 0.9773 | – | 1.33174 | 1.32933 | 1.32803 | 1.32799 | 1.32689 | 1.32665 | 1.32546
303.15 K, x2 = 0.989 | – | 1.33062 | 1.3282 | 1.32693 | 1.32688 | 1.32579 | 1.32555 | 1.32216
303.15 K, x2 = 0.9964 | – | 1.32929 | 1.32688 | 1.32561 | 1.32557 | 1.32451 | 1.32427 | 1.32308
308.15 K, x2 = 0 | 1.37035 | – | – | – | – | – | – | –
308.15 K, x2 = 0.0423 | 1.37024 | – | – | – | – | – | – | –
308.15 K, x2 = 0.0424 | 1.37025 | – | – | – | – | – | – | –
308.15 K, x2 = 0.082 | 1.37021 | – | – | – | – | – | – | –
